Test results published in US10611748B2, “Xanthone derivatives for the treatment of hepatitis B virus disease” (Hoffmann-La Roche Inc., priority 2017, dated 2020).

Tests used:
[1] = tested on: extracellular HBsAg level in HBV-infected PHH; experiment: Cryopreserved primary human hepatocytes (PHH) assay, HBsAg; assay type: cell-based; conditions: Hepatitis B virus, Hepatocyte, 216 h, read-out: HBsAg IC50
Procedure: Cryopreserved PHH (BioreclamationIVT, Lot YJM) was thawed at 37° C. and gently transferred into pre-warmed InVitroGRO HT medium (BioreclamationIVT, Cat. S03317). The mixture was centrifuged at 70 relative centrifugal force (RCF) for 3 minutes at RT, and the supernatant was discarded. Pre-warmed InVitroGRO CP medium (BioreclamationIVT, Cat # S03316) was added to the cell pellet to gently re-suspend cells. The cells were seeded at the density of 5.8×10^4 cells per well to collagen I coated 96-well plate (Gibco, Cat. A1142803) with the InVitroGRO CP medium. All plates were incubated at 37° C. with 5% CO2 and 85% humidity.
At 20 hours after plating, the medium was changed to PHH culture medium (Dulbecco's Modified Eagle Medium (DMEM)/F12 (1:1) (Gibco, Cat. 11320-033), 10% fetal bovine serum (Gibco Cat. 10099141), 100 U/mL penicillin, 100 μg/mL streptomycin (Gibco, Cat. 151401-122), 5 ng/mL human epidermal growth factor (Invitrogen Cat. PHG0311L), 20 ng/mL dexamethasone (Sigma, Cat. D4902) and 250 ng/mL human recombinant insulin (Gibco, Cat. 12585-014)). And the cells were incubated at 37° C. with 5% CO2 and 85% humidity for 4 hours. The medium was then changed to pre-warmed PHH culture medium containing 4% polyethylene glycol (PEG) MW8000 (Sigma, Cat. P1458-50ML) and 1% DMSO (Sigma, Cat. D2650). 5.8×10^6 genomic equivalents of HBV were added into the medium.
At 24 hours post-infection, the cells were gently washed with PBS and refreshed with PHH culture medium supplemented with 1% DMSO, and 0.25 mg/mL Matrix gel (Corning, Cat. 356237) at 200 μL per well. All plates were immediately placed in at 37° C. CO2 incubator.
24 hours later, serial dilutions of compounds made with DMSO were further diluted with the same culture medium (PHH culture medium supplemented with 1% DMSO and 0.25 mg/mL Matrix gel as described above) before they were added to the cells to reach desired final compound concentrations and 1% DMSO concentration. The medium containing the compounds were refreshed every three days.
At 9 days post-compound treatment, extracellular HBsAg level were measured with Chemiluminescence Immuno Assay (CLIA) kit (Autobio, HBsAg Quantitative CLIA). Extracellular HBV DNA was extracted by MagNA Pure 96 system (Roche) and then determined by quantitative PCR with the following primers and probe: HBV-Forward Primer (SEQ ID NO:2): […] (5′ to 3′); HBV-Reverse Primer (SEQ ID NO:3): […](5′ to 3′); HBV-Probe: 5′+tetramethylrhodamine+SEQ ID NO:4+black hole quencher 2-3′, wherein SEQ ID NO:4 is […].
HBsAg IC50 and HBV DNA IC50 values were derived from the dose-response curve using 4 parameter logistic curve fit method.

[2] = tested on: extracellular HBeAg level (surrogate marker for cccDNA) in HepDES19 cells; experiment: HepDES19 primary screen assay; assay type: cell-based, HBV; conditions: Hepatitis B virus, 120 h, 5 days compound incubation, HBeAg ELISA
From the text: The assay was employed to primarily screen for novel cccDNA inhibitors. HepDES19 is an engineered cell line which contains a 1.1 unit length HBV genome, and pgRNA transcription from the transgene is controlled by Tetracycline (Tet). In the absence of Tet, pgRNA transcription will be induced, but HBV e antigen (HBeAg) could not be produced from this pgRNA due to the fact that the very short leader sequence before the HBeAg start codondisrupted the start codon. Only after cccDNA is formed, the missing leader sequence and start codon mutation would be restored from the 3′-terminal redundancy of pgRNA, and then HBeAg could be synthesized. Therefore, HBeAg could be used as a surrogate marker for cccDNA (Zhou, T. et al., Antiviral Res(2006), 72(2), 116-124; Guo, H. et al., J. Virol (2007), 81(22), 12472-12484).
HepDES19 cells were seeded at 2×10^6 cells per T150 flask and cultured with the culture medium (Dulbecco's Modified Eagle Medium: Nutrient Mixture F-12 (DMEM:F12, Gibco Cat. 11320-82), 10% Fetal Bovine Serum (FBS, Clontech Cat. 631101), 0.1 mM Non-Essential Amino Acids Solution (NEAA, Gibco Cat. 11140-050), 50 μg/mL Penicillin-Streptomycin (PS, Invitrogen Cat. 15140-163), 500 μg/mL Geneticin (G418, Invitrogen Cat. 10131-027) containing 3 μg/mL Tet (Sigma, Cat. 87128) for 5 days. Cells were then seeded at 4×10^6 cells per T150 in the same culture medium as described above in the absence of Tet for 8 days. Cells were then harvested and frozen at density of 2×10^6 cells per mL. For compound testing, the frozen cells were thawed and seeded into 96-well plates at a density of 6×10^4 cells per well. At 24 hrs after seeding, half log serial dilutions of compounds made with Dimethyl sulfoxide (DMSO, Sigma, Cat. D2650) were further diluted with the same culture medium as described above before they were added to the cells to reach desired final compound concentrations and 1% DMSO concentration. Plates were then incubated at 37° C. for another 5 days before measurement of HBeAg level and cell viability. Extracellular HBeAg level were measured with enzyme-linked immunosorbent assay (ELISA) kit (Shanghai Kehua Diagnostic Medical Products Co., Ltd). Cell viability was assessed using Cell Counting Kit-8 (Donjindo, Cat. CK04-20). IC50 values were derived from the dose-response curve using 4 parameter logistic curve fit method.
The compounds of the present invention were tested for their capacity to inhibit extracellular HBeAg level as described herein.

Row | Compound | IC50 [1] | IC50 [2]
1 | O=C(O)C1CCN(c2ccc3c(=O)c4cccc(Cl)c4sc3c2)C1 (stereo not shown) [Example 6, 1-(5-chloro-9-oxo-thioxanthen-3-yl)pyrrolidine-3-carboxylic acid] | 5.06 µM | 4.94 µM
2 | Cc1cc2c(=O)c3cccc(Cl)c3oc2cc1N1CCC(C(=O)O)C1 (stereo not shown) [Example 39, 1-(5-chloro-2-methyl-9-oxo-xanthen-3-yl)pyrrolidine-3-carboxylic Acid] | 3.18 µM | 1.08 µM
3 | Cc1ccc(Cl)c2oc3cc(N4CCC(C(=O)O)C4)ccc3c(=O)c12 (stereo not shown) [Example 40, 1-(5-chloro-8-methyl-9-oxo-xanthen-3-yl)pyrrolidine-3-carboxylic Acid] | 1.69 µM | 1.31 µM
4 | O=C(O)C1CCN(c2cc3oc4c(Cl)cccc4c(=O)c3cn2)C1 (stereo not shown) [Example 41, 1-(6-chloro-10-oxo-chromeno[3,2-c]pyridin-3-yl)pyrrolidine-3-carboxylic Acid] | 8.08 µM | 4.04 µM
5 | O=C(O)C1CCN(c2cc3oc4c(Cl)cccc4c(=O)c3cc2F)C1 (stereo not shown) [Example 42, 1-(5-chloro-2-fluoro-9-oxo-xanthen-3-yl)pyrrolidine-3-carboxylic Acid] | 7.74 µM | 1.17 µM
6 | O=C(O)C1CCN(c2cc3oc4c(Cl)cccc4c(=O)c3cc2Cl)C1 (stereo not shown) [Example 43, 1-(2,5-dichloro-9-oxo-xanthen-3-yl)pyrrolidine-3-carboxylic Acid] | 8.22 µM | 1.11 µM
7 | N#Cc1ccc(Cl)c2oc3cc(N4CCC(C(=O)O)C4)ccc3c(=O)c12 (stereo not shown) [Example 44, 1-(5-chloro-8-cyano-9-oxo-xanthen-3-yl)pyrrolidine-3-carboxylic Acid] | 12.4 µM | 1.1 µM
8 | Fc1cccc2c1Oc1cc(N3CCCC3)ccc1C21CCCO1 (stereo not shown) [Example 52, 1-(5′-fluorospiro[tetrahydrofuran-2,9′-xanthene]-3′-yl)pyrrolidine] |  | 14.5 µM
9 | O=C(O)C1CCN(c2ccc3c(=O)c4c(O)ccc(Cl)c4oc3c2)C1 (stereo not shown) [Example 53, 1-(5-chloro-8-hydroxy-9-oxo-xanthen-3-yl)pyrrolidine-3-carboxylic Acid] | 8.12 µM | 3.43 µM
10 | CC1c2ccc(N3CCCC3)cc2Oc2c(Cl)cccc21 (stereo not shown) [Example 54, 1-(5-chloro-9-methyl-9H-xanthen-3-yl)pyrrolidine] |  | 1.6 µM
11 | Clc1cccc2c1Oc1cc(N3CCCC3)ccc1C2 [Example 55, 1-(5-chloro-9H-xanthen-3-yl)pyrrolidine] |  | 1.11 µM
12 | Clc1cccc2c1Oc1c(cc(Cl)c(N3CCCC3)c1Cl)C2 [Example 56, 1-(2,4,5-trichloro-9H-xanthen-3-yl)pyrrolidine] |  | 6.28 µM
13 | Clc1cccc2c1Oc1cc(N3CCCC3)ccc1C2C1COC1 (stereo not shown) [Example 57, 1-[5-chloro-9-(oxetan-3-yl)-9H-xanthen-3-yl]pyrrolidine] |  | 7.33 µM
14 | CC(=O)OC(c1cccc(F)c1Cl)C1c2ccc(N3CCCC3)cc2Oc2c(Cl)cccc21 (stereo not shown) [Example 58, [(2-chloro-3-fluoro-phenyl)-(5-chloro-3-pyrrolidin-1-yl-9H-xanthen-9-yl)methyl]acetate] |  | 11.7 µM
15 | OC1(C(F)(F)F)c2ccc(N3CCCC3)cc2Oc2c(Cl)cccc21 (stereo not shown) [Example 59, 5-chloro-3-pyrrolidin-1-yl-9-(trifluoromethyl)xanthen-9-ol] |  | 19.2 µM
16 | COC1(C(F)(F)F)c2ccc(N3CCCC3)cc2Oc2c(Cl)cccc21 (stereo not shown) [Example 60, 1-[5-chloro-9-methoxy-9-(trifluoromethyl)xanthen-3-yl]pyrrolidine] |  | 22.2 µM
17 | FC(F)(F)C1c2ccc(N3CCCC3)cc2Oc2c(Cl)cccc21 (stereo not shown) [Example 61, 1-[5-chloro-9-(trifluoromethyl)-9H-xanthen-3-yl]pyrrolidine] |  | 31 µM
18 | Fc1cccc2c1Oc1cc(N3CCCC3)ccc1C2 [Example 62, 1-(5-fluoro-9H-xanthen-3-yl)pyrrolidine] |  | 3.99 µM
19 | O=c1c2ccc(N3CCCC3)nc2oc2c(F)cccc12 [Example 63, 9-fluoro-2-pyrrolidin-1-yl-chromeno[2,3-b]pyridin-5-one] |  | 19.2 µM
20 | O=c1c2ccc(N3CCCC3)nc2oc2c(Cl)cccc12 [Example 64, 9-chloro-2-pyrrolidin-1-yl-chromeno[2,3-b]pyridin-5-one] |  | 35 µM
21 | O=C(C1CCN(c2ccc3c(=O)c4cccc(Cl)c4oc3c2)C1)N1CCOCC1 (stereo not shown) [Example 65, 5-chloro-3-[3-(morpholine-4-carbonyl)pyrrolidin-1-yl]xanthen-9-one] |  | 3.89 µM
22 | O=c1c2cc(Cl)c(N3CCCC3)cc2oc2c(F)cccc12 [Example 68, 2-chloro-5-fluoro-3-pyrrolidin-1-yl-xanthen-9-one] |  | 1.18 µM
23 | O=C(O)[C@@H]1CCN(c2ccc3c(=O)c4c(Cl)ccc(Cl)c4oc3c2)C1 [Example 69, (3R)-1-(5,8-dichloro-9-oxo-xanthen-3-yl)pyrrolidine-3-carboxylic Acid] |  | 0.96 µM
24 | O=C(O)C1CCN(c2ccc3c(=O)c4cc(Cl)cc(Cl)c4oc3c2)C1 (stereo not shown) [Example 70, 1-(5,7-dichloro-9-oxo-xanthen-3-yl)pyrrolidine-3-carboxylic Acid] |  | 5.9 µM
25 | O=C(O)C1CCN(c2ccc3c(=O)c4cc(F)cc(Cl)c4oc3c2)C1 (stereo not shown) [Example 71, 1-(5-chloro-7-fluoro-9-oxo-xanthen-3-yl)pyrrolidine-3-carboxylic Acid] |  | 13 µM
26 | O=C(O)[C@H]1CCN(c2ccc3c(=O)c4cccc(Cl)c4sc3c2)C1 [Example 72, (3S)-1-(5-chloro-9-oxo-thioxanthen-3-yl)pyrrolidine-3-carboxylic Acid] |  | 3.6 µM
27 | O=C(O)[C@@H]1CCN(c2ccc3c(=O)c4cccc(Cl)c4sc3c2)C1 [Example 73, (3R)-1-(5-chloro-9-oxo-thioxanthen-3-yl)pyrrolidine-3-carboxylic Acid] |  | 2.6 µM
28 | Cc1cc2c(=O)c3cccc(Cl)c3oc2cc1N1CC[C@@H](C(=O)O)C1 [Example 74, (3R)-1-(5-chloro-2-methyl-9-oxo-xanthen-3-yl)pyrrolidine-3-carboxylic Acid] |  | 2.6 µM
29 | CC1c2ccc(N3CCC(C(=O)O)C3)cc2Oc2c(Cl)cccc21 (stereo not shown) [Example 75, 1-(5-chloro-9-methyl-9H-xanthen-3-yl)pyrrolidine-3-carboxylic Acid] |  | 10.1 µM
